The assay has as its target T1, human VAChT (Homo sapiens, UniProt Q16572).
T1 sequence (Q16572 1-532): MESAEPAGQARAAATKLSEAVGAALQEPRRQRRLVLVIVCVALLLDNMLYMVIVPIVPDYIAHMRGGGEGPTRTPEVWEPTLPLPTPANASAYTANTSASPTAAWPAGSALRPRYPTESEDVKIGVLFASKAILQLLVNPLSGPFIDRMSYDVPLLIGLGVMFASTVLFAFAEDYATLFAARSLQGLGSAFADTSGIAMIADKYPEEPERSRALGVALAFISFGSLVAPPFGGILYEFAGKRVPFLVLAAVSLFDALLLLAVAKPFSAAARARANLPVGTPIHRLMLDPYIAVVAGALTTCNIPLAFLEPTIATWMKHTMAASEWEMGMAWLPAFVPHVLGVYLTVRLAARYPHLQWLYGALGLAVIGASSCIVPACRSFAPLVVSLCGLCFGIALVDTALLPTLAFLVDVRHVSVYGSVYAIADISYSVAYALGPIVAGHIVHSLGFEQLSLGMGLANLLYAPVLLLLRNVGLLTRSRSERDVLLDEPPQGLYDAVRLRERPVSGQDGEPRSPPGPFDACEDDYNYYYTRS
In words: VAChT binding assay, displacement of. The note with it: for VAChT selectivity Kiσ1/Ki VAChT: Ki for σ1 divided by Ki for VAChT; for selectivity for VAChT over σ receptors (σ1 and σ2): versus either sigma receptor type; for decrease in affinity for VAChT compared to 9: relative to compound 9; for decrease in affinity for VAChT compared to 19e: relative to compound 19e.

The structures appear in SMILES notation.

As for `CNc1ccc(C(=O)C2CCN(C3Cc4ccccc4CC3O)CC2)cc1` (racemic) [Compound 24b, (1-(3-Hydroxy-1,2,3,4-tetrahydronaphthalen-2-yl)piperidin-4-yl)(4-(methylamino)phenyl) methanone], the “VAChT selectivity Kiσ1/Ki VAChT” value was 100.
For the molecule `O=C(c1cccnc1F)C1CCN(C2Cc3ccccc3CC2O)CC1` (racemic) [Compound 19k, (2-Fluoropyridin-3-yl)(1-(3-hydroxy-1,2,3,4-tetrahydronaphthalen-2-yl)piperidin-4-yl)methanone], the “VAChT selectivity Kiσ1/Ki VAChT” value is given as 100.
Regarding `O=C(c1cncc(F)c1)C1CCN(C2Cc3ccccc3CC2O)CC1` (racemic) [Compound 19g, (5-Fluoropyridin-3-yl)(1-(3-hydroxy-1,2,3,4-tetrahydronaphthalen-2-yl)piperidin-4-yl)methanone], the “selectivity for VAChT over σ receptors (σ1 and σ2)” value is listed as above 70 fold.
For the molecule `Cn1ccc(C(=O)C2CCN(C3Cc4ccccc4CC3O)CC2)c1` (racemic) [Compound 19b, (1-(3-Hydroxy-1,2,3,4-tetrahydronaphthalen-2-yl)piperidin-4-yl)(1-methyl-1H-pyrrol-3-yl)methanone], the “decrease in affinity for VAChT compared to 9” value was 4-5 fold.
`COc1cccnc1C(=O)C1CCN(C2Cc3ccccc3CC2O)CC1` (racemic) [Compound 19f, (1-(3-Hydroxy-1,2,3,4-tetrahydronaphthalen-2-yl)piperidin-4-yl)(3-methoxypyridin-2-yl)methanone]: the “decrease in affinity for VAChT compared to 19e” value was 15 fold.
Take `O=C(c1cccnc1)C1CCN(C2Cc3ccccc3CC2O)CC1` (racemic) [Compound 19c, (1-(3-Hydroxy-1,2,3,4-tetrahydronaphthalen-2-yl)piperidin-4-yl)(pyridin-3-yl)methanone]: the “lower affinity for VAChT compared to benzoyl counterpart 5” value (relative to compound 5) is given as 5 fold.
As to `Cn1cccc1C(=O)C1CCN(C2Cc3ccccc3CC2O)CC1` (racemic) [Compound 19a, (1-(3-Hydroxy-1,2,3,4-tetrahydronaphthalen-2-yl)piperidin-4-yl)(1-methyl-1H-pyrrol-2-yl)methanone], the “decrease in affinity for VAChT compared to 9” value is 4-5 fold; the “selectivity for VAChT over σ receptors (σ1 and σ2)” value was above 70 fold.
In the case of `Cn1cccc1C(=O)C1CCN(C2Cc3c(N)cccc3CC2O)CC1` (racemic) [Compound 30a, (1-(8-Amino-3-hydroxy-1,2,3,4-tetrahydronaphthalen-2-yl)piperidin-4-yl)(1-methyl-1Hpyrrol-2-yl)methanone], the “higher VAChT binding affinity than 31a” value (relative to compound 31a) worked out at 60 fold.
Take `O=C(c1ccc(OCCF)nc1)C1CCN(C2Cc3ccccc3CC2O)CC1` (racemic) [Compound 26a, (6-(2-Fluoroethoxy)pyridin-3-yl)(1-(3-hydroxy-1,2,3,4-tetrahydronaphthalen-2-yl)-piperidin-4-yl)methanone]: the “decrease in affinity for VAChT compared to 19e” value was found to be 4.5 fold.

Values taken from PMC3804129 (Journal of medicinal chemistry, 2013).
